These results are taken from patent publication US7462459B2, “LAT1 transporters expressed in blood brain barrier cells” (XenoPort, Inc., priority 2004, dated 2008).

The target in data set [1] is T1, LAT1 (Homo sapiens, UniProt Q01650). To be noted: cited from earlier work.
Target sequence in this assay (Q01650 whole entry, species assumed): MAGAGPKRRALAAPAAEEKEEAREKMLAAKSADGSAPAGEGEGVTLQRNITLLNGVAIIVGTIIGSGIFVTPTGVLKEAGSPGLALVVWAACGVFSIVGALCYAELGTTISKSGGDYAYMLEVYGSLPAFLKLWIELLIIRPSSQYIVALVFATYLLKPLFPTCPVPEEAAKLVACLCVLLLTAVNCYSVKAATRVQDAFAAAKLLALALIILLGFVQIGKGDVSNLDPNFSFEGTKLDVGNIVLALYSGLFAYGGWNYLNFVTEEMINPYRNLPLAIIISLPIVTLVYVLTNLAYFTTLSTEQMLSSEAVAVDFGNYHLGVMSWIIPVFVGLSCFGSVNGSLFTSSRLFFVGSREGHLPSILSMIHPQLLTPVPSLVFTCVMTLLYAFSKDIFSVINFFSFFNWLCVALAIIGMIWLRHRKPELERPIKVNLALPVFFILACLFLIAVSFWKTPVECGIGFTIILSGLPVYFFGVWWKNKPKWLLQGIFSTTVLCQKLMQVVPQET
Target sequence in this assay (P08195 102-630 partner, species assumed): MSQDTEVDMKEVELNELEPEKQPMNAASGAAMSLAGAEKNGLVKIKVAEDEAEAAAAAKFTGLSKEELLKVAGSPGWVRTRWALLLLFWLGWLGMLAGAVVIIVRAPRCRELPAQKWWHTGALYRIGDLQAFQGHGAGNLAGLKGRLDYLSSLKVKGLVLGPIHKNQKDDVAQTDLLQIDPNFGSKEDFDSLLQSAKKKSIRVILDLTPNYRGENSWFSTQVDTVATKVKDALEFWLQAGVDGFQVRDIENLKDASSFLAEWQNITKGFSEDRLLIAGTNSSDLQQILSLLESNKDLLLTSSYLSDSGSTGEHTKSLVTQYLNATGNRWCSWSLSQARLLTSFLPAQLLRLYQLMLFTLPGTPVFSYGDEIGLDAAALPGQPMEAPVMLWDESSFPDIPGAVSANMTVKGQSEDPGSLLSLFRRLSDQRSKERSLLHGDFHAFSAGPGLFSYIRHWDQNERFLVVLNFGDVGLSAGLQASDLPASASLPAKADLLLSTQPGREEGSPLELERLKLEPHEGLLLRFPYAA
The next data set concerns the target PgP (Homo sapiens, UniProt P08183). The data set can be described thus: Cellular transwell monolayer efflux assay, MDCK cells with TREx-PgP.
Data set [2] addresses T2, hLAT1 (Homo sapiens, UniProt P08195+Q01650).
T2 construct: expressed in transfected cells
The data set can be described thus: LAT1 direct uptake assay in HEK-TREx-LAT1-4F2hc cells (LC-MS-MS). Format: cell-based. Conditions: read-out: Km or IC50, Direct Uptake. On the procedure:
Four concentrations (bracketing the affinity as measured by competition assays) per compound were routinely tested.
Typically, four concentrations bracketing the IC50 were tested. The highest test concentration for each compound was made in an eppendorf tube and diluted into HBSS. The samples were robustly vortexed and centrifuged for 10 minutes at 13,200 rpm to spin down any precipitate. […] Three additional 2-fold dilutions were made in the subsequent rows (B-D or […]) in HBSS.
Alternatively, cells were washed manually with equivalent volumes using a multichannel pipettor.
The plate was incubated at room temperature for 10 minutes.
120 μl of the cell extract was removed from each well and transferred to a fresh 96-well v-bottom polypropylene plate. […] 10 μl of the 50 μM propranolol solution was added to each well of a fresh 96-well plate (a plate amenable for sampling in the LC-MS-MS).

Data set [3] has as its target T1, LAT1. Put plainly: Oocyte direct uptake assay (LC-MS-MS), oocytes expressing hLAT1 and 4F2hc. Format: cell-based. Also on record: expressed in transfected cells; host or cells: Xenopus oocytes injected with cRNA. From the text:
To assess transport function of a specific transporter protein, it can be desirable to clone the cDNA and express the protein in cells that have low endogenous transport activity. Human LAT1 was cloned by PCR, fully sequenced, and subcloned into plasmids that can be used for expression in mammalian cells or Xenopus oocytes. The co-subunit required for LAT1 function, 4F2HC (Genbank accession AB018010), was also cloned and sequenced. Unless otherwise noted, 4F2HC was also co-expressed in each heterologous system described in the example. […] For expression in Xenopus oocytes, in vitro LAT1 and 4F2HC cRNA was prepared and injected into defoliculated oocytes.
To measure directly the uptake of possible substrates, an oocyte uptake assay in which compounds are measured by mass spectroscopy was developed. To illustrate this approach, uptake assays of gabapentin and L-dopa were performed. Oocytes used in this experiment were injected with LAT1 cRNA and incubated at 16-18° C. until maximal transporter expression was reached. Oocytes from the same batch, which were not injected with cRNA, were used in the experiment to serve as a control. […] Following the incubation, the pools of oocytes were washed 4 times with 0.5% BSA ND96 buffer and separated into 2 oocyte subpools containing 4 oocytes each. Subpools were homogenized in 150 μl of ice cold 80% MeOH/H2O, and lysed manually with a P200 pipettor. Lysates were vortexed briefly before being spun in a 4° C. tabletop centrifuge at 13.2 krpm for 15 minutes. Approximately 110 μl of lysate was removed from the eppendorf tubes and placed in a 96-well plate. Lysates were analyzed for gabapentin and L-dopa by liquid chromatography-mass spectroscopy.
Samples were analyzed by LC-MS-MS as follows. […] Analyte fragmentation peaks were integrated using Analyst 1.2 quantitation software, and concentrations were calculated using a calibration curve of signals produced by known concentrations of the compound.
Target sequence in this assay (Q01650 whole entry): as the sequence (Q01650 whole entry, species assumed) above
Target sequence in this assay (as listed by the source partner): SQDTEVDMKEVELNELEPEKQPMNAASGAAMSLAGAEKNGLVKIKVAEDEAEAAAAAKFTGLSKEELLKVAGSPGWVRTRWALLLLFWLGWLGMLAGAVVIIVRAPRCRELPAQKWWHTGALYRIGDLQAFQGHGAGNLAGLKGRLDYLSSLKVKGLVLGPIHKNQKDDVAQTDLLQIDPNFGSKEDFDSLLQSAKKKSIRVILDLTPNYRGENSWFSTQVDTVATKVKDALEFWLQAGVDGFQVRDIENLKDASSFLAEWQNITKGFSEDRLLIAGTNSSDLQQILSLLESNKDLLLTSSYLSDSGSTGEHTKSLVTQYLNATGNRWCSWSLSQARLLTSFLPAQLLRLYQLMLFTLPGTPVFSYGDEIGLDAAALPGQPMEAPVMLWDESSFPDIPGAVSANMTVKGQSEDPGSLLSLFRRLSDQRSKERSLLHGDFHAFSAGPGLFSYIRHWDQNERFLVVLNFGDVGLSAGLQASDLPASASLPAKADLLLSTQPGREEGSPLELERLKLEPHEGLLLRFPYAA

The target in data set [4] is T1, LAT1. Put plainly: KB cell direct uptake assay (LC-MS-MS). Conditions: read-out: Km or IC50, Direct Uptake; KB cells; 5 min.
Data set [5] has as its target T1, LAT1. To be noted: Literature; LAT1-expressing oocytes; cited from earlier work.
Target sequence in this assay (Q01650 whole entry, species assumed): as the sequence (Q01650 whole entry, species assumed) above
Target sequence in this assay (P08195 102-630 partner, species assumed): as the sequence (P08195 102-630 partner, species assumed) above
A further data set addresses T3, LAT1 transporter (Homo sapiens, UniProt Q01650).
T3 construct: KB cells endogenously expressing LAT1; endogenous in cells; host or cells: KB cells
Put plainly: KB cell competition assay with 14C-gabapentin. The format is cell-based. From the text: To increase the throughput of LAT1 compound screening, a mammalian cell assay was developed. Because LAT1 mRNA is expressed at detectable levels in many cancer cell lines, over 20 human cell lines were screened for LAT1 expression using quantitative PCR. Cell lines included A498, A549, ASPC, CALU, CAPAN, DLD, DU145, H69AR, HCT8, HEK, HELA, HEPG2, HL60, JAR, JUR, KB, LOVO, MCF7, PANC1, PC3, and SW48.
To determine whether a compound interacts with the LAT1 transporter, a competition-binding assay was developed. The assay measures how different concentrations of a test compound block the uptake of a radiolabeled substrates such as ^14C-L-dopa or ^14C-gabapentin. The half-maximal inhibitory concentration (IC50) for inhibition of transport of a substrate by a test compound is an indication of the affinity of the test compound for the LAT1 transporter. Competition binding studies were performed as follows. KB cells were plated in 96-well plates at 100,000 cells/well and incubated for 24 hours at 37° C. Radiolabeled ^14C-gabapentin (˜50,000 cpm/well) was added to each well in the presence and absence of various concentrations of test compound in duplicate or triplicate. Plates were incubated at room temperature for 20 min. Excess radiolabeled substrate was removed and cells were washed three times with a 96-well plate washer with cold assay buffer. Scintillation fluid was added to each well, the plates were sealed and counted in a 96-well plate-based scintillation counter. Data were graphed and analyzed using non-linear regression analysis with Prism Software (GraphPad, Inc., San Diego, Calif.).

Data set [6] concerns the target T2, hLAT1. The data set can be described thus: LAT1 competition uptake assay in HEK-TREx-LAT1-4F2hc cells with 3H-gabapentin. Format: cell-based. On the procedure: The plates were incubated at room temperature for 15 minutes.
Data set [7] concerns the target T1, LAT1. The data set can be described thus: Radiolabel uptake into Xenopus oocytes expressing LAT1 and 4F2HC. More on the design: expressed in transfected cells; host or cells: Xenopus oocytes injected with cRNA. The format is cell-based. Conditions: FIG. 2.
[8] abbreviates: 2.5 nM 3H-vinblastine, 250 μM verapamil.
Where [9] appears, read: own data, read-out: Km or IC50, Direct Uptake.
Where [10] appears, read: KB cells, read-out: Km or IC50, Competition (14C-GP).

pIC50: −log10 of the molar value. Like-named read-outs stand apart in the source and are kept apart here.

T2 sequence (Q01650+P08195 fused): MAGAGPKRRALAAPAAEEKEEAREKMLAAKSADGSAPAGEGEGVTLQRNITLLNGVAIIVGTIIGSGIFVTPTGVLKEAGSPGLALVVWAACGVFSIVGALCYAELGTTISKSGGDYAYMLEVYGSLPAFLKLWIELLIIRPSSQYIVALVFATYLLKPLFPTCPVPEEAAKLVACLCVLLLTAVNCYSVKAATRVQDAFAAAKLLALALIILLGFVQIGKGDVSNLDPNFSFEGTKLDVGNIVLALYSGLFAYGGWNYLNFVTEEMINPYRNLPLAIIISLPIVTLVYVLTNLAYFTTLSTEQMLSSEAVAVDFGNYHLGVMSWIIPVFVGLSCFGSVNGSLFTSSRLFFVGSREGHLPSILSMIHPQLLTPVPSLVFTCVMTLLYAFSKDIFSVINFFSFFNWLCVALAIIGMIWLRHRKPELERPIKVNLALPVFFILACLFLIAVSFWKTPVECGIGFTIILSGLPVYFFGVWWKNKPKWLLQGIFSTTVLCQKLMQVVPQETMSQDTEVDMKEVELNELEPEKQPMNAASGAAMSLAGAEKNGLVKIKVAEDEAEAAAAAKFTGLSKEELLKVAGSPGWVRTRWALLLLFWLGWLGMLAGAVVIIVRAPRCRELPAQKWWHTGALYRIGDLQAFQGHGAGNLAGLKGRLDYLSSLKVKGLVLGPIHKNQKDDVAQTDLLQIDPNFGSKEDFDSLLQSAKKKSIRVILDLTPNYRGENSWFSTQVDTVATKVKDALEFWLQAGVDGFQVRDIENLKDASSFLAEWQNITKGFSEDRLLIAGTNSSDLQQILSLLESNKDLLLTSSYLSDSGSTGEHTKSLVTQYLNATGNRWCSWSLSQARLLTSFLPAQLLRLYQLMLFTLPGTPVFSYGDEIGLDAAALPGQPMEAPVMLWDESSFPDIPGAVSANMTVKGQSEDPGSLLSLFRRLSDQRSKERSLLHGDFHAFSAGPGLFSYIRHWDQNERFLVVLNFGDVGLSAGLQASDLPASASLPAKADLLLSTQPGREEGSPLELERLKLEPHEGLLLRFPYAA
Sequence of PgP (P08183 whole entry): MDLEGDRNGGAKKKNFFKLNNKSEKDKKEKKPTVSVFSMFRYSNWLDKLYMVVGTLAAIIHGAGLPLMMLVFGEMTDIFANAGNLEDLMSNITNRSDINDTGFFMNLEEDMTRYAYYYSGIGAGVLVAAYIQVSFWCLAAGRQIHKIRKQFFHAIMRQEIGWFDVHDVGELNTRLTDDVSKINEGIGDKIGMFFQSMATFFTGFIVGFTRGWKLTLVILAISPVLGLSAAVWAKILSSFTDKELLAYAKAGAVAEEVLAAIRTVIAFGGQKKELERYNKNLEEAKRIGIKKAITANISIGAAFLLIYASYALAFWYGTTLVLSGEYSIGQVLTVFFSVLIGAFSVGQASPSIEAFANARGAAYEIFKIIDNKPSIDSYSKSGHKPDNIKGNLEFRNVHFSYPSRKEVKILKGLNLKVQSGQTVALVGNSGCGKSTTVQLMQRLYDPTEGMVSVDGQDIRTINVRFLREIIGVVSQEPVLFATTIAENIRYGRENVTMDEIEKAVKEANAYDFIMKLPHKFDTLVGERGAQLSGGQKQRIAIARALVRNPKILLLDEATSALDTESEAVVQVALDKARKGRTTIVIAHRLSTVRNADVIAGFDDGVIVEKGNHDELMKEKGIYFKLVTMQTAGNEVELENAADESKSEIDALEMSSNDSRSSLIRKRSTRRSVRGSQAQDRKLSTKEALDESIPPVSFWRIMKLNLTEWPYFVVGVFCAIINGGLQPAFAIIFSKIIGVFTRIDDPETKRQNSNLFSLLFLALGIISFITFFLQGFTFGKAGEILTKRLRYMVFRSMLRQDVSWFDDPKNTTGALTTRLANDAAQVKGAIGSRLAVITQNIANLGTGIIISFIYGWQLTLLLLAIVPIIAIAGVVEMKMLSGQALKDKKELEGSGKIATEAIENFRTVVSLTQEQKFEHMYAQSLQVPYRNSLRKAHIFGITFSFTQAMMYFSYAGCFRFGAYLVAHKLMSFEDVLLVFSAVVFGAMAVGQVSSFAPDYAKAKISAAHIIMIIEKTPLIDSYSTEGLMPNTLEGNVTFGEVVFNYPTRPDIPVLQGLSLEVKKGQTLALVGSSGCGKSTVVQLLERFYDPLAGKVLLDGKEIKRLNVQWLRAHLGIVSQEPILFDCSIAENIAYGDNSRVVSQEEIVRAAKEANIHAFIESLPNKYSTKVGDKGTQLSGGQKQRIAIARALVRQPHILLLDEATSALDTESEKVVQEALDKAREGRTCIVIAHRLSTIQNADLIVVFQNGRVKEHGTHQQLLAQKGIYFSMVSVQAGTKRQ
T3 sequence (Q01650 whole entry): as the sequence (Q01650 whole entry, species assumed) above
T3 sequence (P08195 102-630 partner): as the sequence (P08195 102-630 partner, species assumed) above

Take `CSCC[C@H](N)C(=O)O` [Methionine]: the “Reported Affinity for LAT1” value on LAT1 [1] is reported as 0.25 mM.

Regarding `CC(C)C[C@H](N)C(=O)O` [Leucine], the “Reported Affinity for LAT1” value on LAT1 [1] is 0.22 mM.

Take `CC[C@]1(O)C[C@@H]2CN(CCc3c([nH]c4ccccc34)[C@@](C(=O)OC)(c3cc4c(cc3OC)N(C)[C@H]3[C@@](O)(C(=O)OC)[C@H](OC(C)=O)[C@]5(CC)C=CCN6CC[C@]43[C@@H]65)C2)C1` [vinblastine]: the PgP substrate status result at PgP is on record as “is a substrate of PgP”. Also, at PgP (setting [8]), the “Apical to basolateral transport in the presence of verapamil” value is on record as “strongly increased” and the “Basolateral to apical transport in the presence of verapamil” value is recorded as “strongly decreased”.

In the case of `NC1(C(=O)O)CC2CCC1C2` (stereo not shown) [Bicyclohexane amino acid], at LAT1 [1], the “Reported Affinity for LAT1” value is recorded as 0.18 mM.

For `N[C@@H](Cc1c[nH]c2ccccc12)C(=O)O` [Tryptophan], the “Reported Affinity for LAT1” value at LAT1 [1] was 0.35 mM.

`NCC(CC(=O)O)c1ccc(Cl)cc1` (stereo not shown) [Baclofen]: the “Reported Affinity for LAT1” value at LAT1 [1] is reported as 0.25 mM.

As for `N[C@@H](Cc1ccccc1)C(=O)O` [Phenylalanine], the Km at hLAT1 [2] worked out at 140 µM; on LAT1 [3] (setting [9]), 25 µM; at LAT1 [4], 14.5 µM. At LAT1 [5], the “Km or IC50, Radiolabel Uptake or Competition” value is 12.5 to 14.2 µM. Besides, the pIC50 was 4.00 at LAT1 transporter (setting [10]) and 3.80 at hLAT1 [6] (HEK-LAT1 cells, read-out: Km or IC50, Competition (3H-GP)). In addition, the “Reported Affinity for LAT1” value at LAT1 [1] is recorded as 0.025 mM.

As to `N[C@@H](Cc1ccc(O)c(O)c1)C(=O)O` [L-dopa], the Km on LAT1 [3] (setting [9]) turned out to be 66 µM. At LAT1 [7], the “3H-L-dopa uptake into oocytes expressing LAT1 and 4F2HC versus noninjected controls” value is on record as “higher levels”. The pIC50 on LAT1 transporter (setting [10]) was 3.72.

Consider `NCC1(CC(=O)O)CCCCC1` [Gabapentin], for which the Km on hLAT1 [2] is 500 µM; at LAT1 [3] (read-out: Km or IC50, Direct Uptake, own data), 140 µM; at LAT1 [4], 160 µM. The “Km or IC50, Radiolabel Uptake or Competition” value on LAT1 [5] is 340 µM. Further, the pIC50 on LAT1 transporter was 3.68; at hLAT1 [6], 3.40. On LAT1 [1], the “Reported Affinity for LAT1” value is 0.15 mM.

By Km is commonly meant the substrate concentration at which the rate is half of its maximum. In general, pIC50 refers to −log10 of the IC50, conventionally taken in molar units.
